Experimental data as given in PMC10728897, “High-Throughput Engineering of Nonribosomal Extension Modules” (ACS Chemical Biology, 2023).

Tests used:
TycC6 C-A-T tridomain = molecular target: T1, TycC6 C-A-T tridomain (Brevibacillus parabrevis, UniProt O30409); assay: yeast surface display loading assay, click biotinylation, flow cytometry; format: cell-based; conditions: 20 and 50 mM pGly, 0.1 mM ATP, 1 mM MgCl2, pH 7.4, 25 C; covalent loading on ppant of T domain; modest efficiency
T1 construct: gene tycC; ppant installed by Sfp
T1 sequence (O30409 5200-6255 limits assumed): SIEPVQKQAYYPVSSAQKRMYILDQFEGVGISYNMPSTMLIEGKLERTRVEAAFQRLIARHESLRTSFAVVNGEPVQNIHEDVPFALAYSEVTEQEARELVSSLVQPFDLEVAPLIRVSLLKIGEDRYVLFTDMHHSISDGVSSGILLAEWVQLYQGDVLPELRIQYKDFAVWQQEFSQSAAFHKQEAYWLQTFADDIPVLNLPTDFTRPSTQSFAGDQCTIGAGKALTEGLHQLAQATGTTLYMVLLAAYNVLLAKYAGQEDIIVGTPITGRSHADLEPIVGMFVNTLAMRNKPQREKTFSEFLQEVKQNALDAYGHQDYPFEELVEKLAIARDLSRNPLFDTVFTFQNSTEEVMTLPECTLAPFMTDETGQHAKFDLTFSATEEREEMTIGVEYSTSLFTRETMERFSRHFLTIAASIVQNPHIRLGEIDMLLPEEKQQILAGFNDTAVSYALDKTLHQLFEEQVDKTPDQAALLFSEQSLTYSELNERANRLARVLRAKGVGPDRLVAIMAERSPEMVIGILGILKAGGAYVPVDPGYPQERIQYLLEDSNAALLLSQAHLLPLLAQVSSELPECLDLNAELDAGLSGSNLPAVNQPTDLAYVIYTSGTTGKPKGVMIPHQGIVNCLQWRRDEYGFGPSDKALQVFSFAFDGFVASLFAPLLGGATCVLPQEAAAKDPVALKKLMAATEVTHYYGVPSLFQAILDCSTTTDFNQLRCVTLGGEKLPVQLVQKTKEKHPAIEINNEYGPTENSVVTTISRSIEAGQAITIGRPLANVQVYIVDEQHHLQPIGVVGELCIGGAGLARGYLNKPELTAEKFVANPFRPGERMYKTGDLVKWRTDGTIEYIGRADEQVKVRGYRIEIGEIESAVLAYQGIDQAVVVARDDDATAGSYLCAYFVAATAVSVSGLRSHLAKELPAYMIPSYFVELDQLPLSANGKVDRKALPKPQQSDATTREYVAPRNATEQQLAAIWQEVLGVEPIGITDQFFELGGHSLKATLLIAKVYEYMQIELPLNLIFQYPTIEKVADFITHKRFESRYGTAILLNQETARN

TycB2 A-T bidomain = molecular target: T2, TycB2 A-T bidomain (Brevibacillus parabrevis, UniProt O30408, M1767A/M1802I, form not given); assay: as above; format: cell-based; conditions: 0.5 mM pPhe with 0.5 mM L-Phe as competitor, 0.1 mM ATP, pH 7.4, 25 C; covalent loading on ppant of T domain
T2 construct: gene tycB; ppant installed by Sfp
T2 sequence (O30408 1530-2090 M1767A/M1802I, form open): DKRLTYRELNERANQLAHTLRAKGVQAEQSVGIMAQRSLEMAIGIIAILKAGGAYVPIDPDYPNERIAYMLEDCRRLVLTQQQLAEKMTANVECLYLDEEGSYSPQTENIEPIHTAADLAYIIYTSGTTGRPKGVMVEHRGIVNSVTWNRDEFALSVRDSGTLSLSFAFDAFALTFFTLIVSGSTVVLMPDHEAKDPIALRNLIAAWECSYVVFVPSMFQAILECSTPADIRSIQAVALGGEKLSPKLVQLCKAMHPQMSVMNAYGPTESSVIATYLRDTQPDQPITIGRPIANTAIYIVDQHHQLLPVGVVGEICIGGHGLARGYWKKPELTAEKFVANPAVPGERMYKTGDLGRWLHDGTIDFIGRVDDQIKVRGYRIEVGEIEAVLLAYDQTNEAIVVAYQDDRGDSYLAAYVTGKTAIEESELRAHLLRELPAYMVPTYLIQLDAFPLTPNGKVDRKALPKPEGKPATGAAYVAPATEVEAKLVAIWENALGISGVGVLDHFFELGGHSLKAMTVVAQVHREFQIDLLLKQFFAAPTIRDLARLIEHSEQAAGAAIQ

Compound | yeast surface display loading assay, click biotinylation, flow cytometry (TycC6 C-A-T tridomain) | yeast surface display loading assay, click biotinylation, flow cytometry (TycB2 A-T bidomain)
C#CCC(N)C(=O)O (centres unmarked) [pGly, propargyl glycine] | the displayed module was found to activate pGly in a concentration-dependent manner | 
C#CCOc1ccc(C[C@H](N)C(=O)O)cc1 [pPhe, 4-propargyloxy-L-phenylalanine] |  | the variant with the M1768A and M1803I mutations was the most active and selective
